The record followed here is patent US8524718B2, “Heteroaromatic derivatives and their use as positive allosteric modulators of metabotropic glutamate receptors” (Addex Pharma S.A., priority 2007, dated 2013).

SMILES strings stand for the structures.

For series [1], the target named is T1, recombinant human mGluR4a receptors (Homo sapiens, UniProt Q14833).
T1 construct: expressed in transfected cells
The series can be described thus: mGluR4 assay on HEK-expressing human mGluR4 (fluorescent cell based Ca2+ mobilization assay, FLIPR). The following applies: HEK-293 cells expressing hmGluR4; enhancement of EC25 glutamate response; mean of at least three independent experiments in duplicate; read-out: Ca^2+ Flux (mean EC50). The source says:
mGluR4 Assay on HEK-Expressing Human mGluR4 The compounds of the present invention are positive allosteric modulators of mGluR4 receptor. Their activity was examined on recombinant human mGluR4a receptors by detecting changes in intracellular Ca^2+ concentration, using the fluorescent Ca^2+-sensitive dye Fluo-4-(AM) and a Fluorometric Imaging Plate Reader (FLIPR, Molecular Devices, Sunnyvale, Calif.) The cDNA encoding the human metabotropic glutamate receptor (hmGluR4), (accession number NM_000841.1, NCBI Nucleotide database browser), was subcloned into an expression vector containing also the hygromycin resistance gene. In parallel, the cDNA encoding a G protein allowing redirection of the activation signal to intracellular calcium flux was subcloned into a different expression vector containing also the puromycin resistance gene. Transfection of both these vectors into HEK293 cells with PolyFect reagent (Qiagen) according to supplier's protocol, and hygromycin and puromycin treatment allowed selection of antibiotic resistant cells which had integrated stably one or more copies of the plasmids. Positive cellular clones expressing hmGluR4 were identified in a functional assay measuring changes in calcium fluxes in response to glutamate or selective known mGluR4 orthosteric agonists and antagonists. HEK-293 cells expressing hmGluR4 were maintained in media containing DMEM, dialyzed Fetal Calf Serum (10%), Glutamax™ (2 mM), Penicillin (100 units/mL), Streptomycin (100 μg/mL), Geneticin (100 μg/mL) and Hygromycin-B (40 μg/mL) and puromycin (1 μg/mL) at 37° C./5% CO2. Human mGluR4 HEK-293 cells were plated out 24 hours prior to FLIPR^384 assay in black-walled, clear-bottomed, poly-L-ornithine-coated 384-well plates at a density of 25,000 cells/well in a glutamine/glutamate free DMEM medium containing foetal bovine serum (10%), penicillin (100 units/mL) and streptomycin (100 μg/mL) at 37 C/5% CO2. On the day of the assay, the medium was aspirated and the cells were loaded with a 3 μM solution of Fluo-4-AM (LuBioScience, Lucerne, Switzerland) in 0.03% pluronic acid. After 1 hour at 37 C/5% CO2, the non incorporated dye was removed by washing cell plate with the assay buffer and the cells were left in the dark at room temperature for six hours before testing. All assays were performed in a pH 7.4 buffered-solution containing 20 mM HEPES, 143 mM NaCl, 6 mM KCl, 1 mM MgSO4, 1 mM CaCl2, 0.125 mM sulfapyrazone, 0.1% glucose. After 10 s of basal fluorescence recording, various concentrations of the compounds of the invention were added to the cells. Changes in fluorescence levels were first monitored for 180 s in order to detect any agonist activity of the compounds. Then the cells were stimulated by an EC25 glutamate concentration for an additional 110 s in order to measure enhancing activities of the compounds of the invention. EC25 glutamate concentration is the concentration giving 25% of the maximal glutamate response. The concentration-response curves of representative compounds of the present invention were generated using the Prism GraphPad software (Graph Pad Inc, San Diego, USA). The curves were fitted to a four-parameter logistic equation: (Y=Bottom+(Top−Bottom)/(1+10^((Log EC50−X)*Hill Slope) allowing the determination of EC50 values. The Table 5 below represents the mean EC50 obtained from at least three independent experiments of selected molecules performed in duplicate.

T1 sequence (Q14833 33-912): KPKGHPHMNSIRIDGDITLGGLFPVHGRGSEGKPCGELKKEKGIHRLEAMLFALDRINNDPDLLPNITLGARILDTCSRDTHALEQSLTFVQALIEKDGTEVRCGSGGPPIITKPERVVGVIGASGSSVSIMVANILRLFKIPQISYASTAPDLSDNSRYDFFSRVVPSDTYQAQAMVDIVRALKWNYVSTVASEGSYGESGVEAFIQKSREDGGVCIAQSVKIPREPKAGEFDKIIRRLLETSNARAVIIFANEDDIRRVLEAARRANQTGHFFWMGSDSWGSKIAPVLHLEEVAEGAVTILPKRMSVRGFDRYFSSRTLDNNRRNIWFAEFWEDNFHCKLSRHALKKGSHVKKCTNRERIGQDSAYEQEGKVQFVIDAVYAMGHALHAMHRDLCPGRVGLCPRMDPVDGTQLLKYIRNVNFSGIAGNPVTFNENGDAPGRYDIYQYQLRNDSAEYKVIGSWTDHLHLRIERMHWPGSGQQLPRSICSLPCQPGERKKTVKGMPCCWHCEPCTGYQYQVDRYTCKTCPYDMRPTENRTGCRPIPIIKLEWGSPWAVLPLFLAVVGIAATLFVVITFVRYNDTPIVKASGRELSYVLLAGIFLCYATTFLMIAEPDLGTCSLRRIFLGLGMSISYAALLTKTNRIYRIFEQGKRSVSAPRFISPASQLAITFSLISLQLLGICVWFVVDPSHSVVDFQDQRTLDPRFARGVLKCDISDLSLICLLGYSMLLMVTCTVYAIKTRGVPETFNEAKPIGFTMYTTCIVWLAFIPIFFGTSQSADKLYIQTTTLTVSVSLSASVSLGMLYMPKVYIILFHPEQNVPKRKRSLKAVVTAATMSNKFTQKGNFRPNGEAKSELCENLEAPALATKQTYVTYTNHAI

In the case of `Cc1n[nH]cc1-c1nsc(Nc2ccccc2)n1` [Compound 1-1, 3-(3-methyl-1H-pyrazol-4-yl)-N-phenyl-1,2,4-thiadiazol-5-amine], in series [1], the EC50 was 1000 to 10000 nM. The molecule `CC(=O)n1cc(-c2nsc(Nc3ccccc3)n2)c(C)n1` [Compound 1-2, 1-(3-Methyl-4-(5-(phenylamino)-1,2,4-thiadiazol-3-yl)-1H-pyrazol-1-yl)ethanone] showed a melting point of 204 to 208 °C. Further, the half-maximal effective concentration (EC50) in series [1] lay in the range of 1000 to 10000 nM.

The molecule `Cc1n[nH]cc1-c1nsc(Nc2ccccc2Cl)n1` [Compound 1-3, N-(2-Chlorophenyl)-3-(3-methyl-1H-pyrazol-4-yl)-1,2,4-thiadiazol-5-amine] yielded a melting point of 180 to 182 °C. Moreover, the EC50 in series [1] lay in the range of 1000 to 10000 nM. Turning to `Cc1n[nH]cc1-c1nsc(Nc2ccccc2F)n1` [Compound 1-4, N-(2-Fluorophenyl)-3-(3-methyl-1H-pyrazol-4-yl)-1,2,4-thiadiazol-5-amine], in series [1], the concentration giving a half-maximal response (EC50) is 500 to 1000 nM. As for `Cc1n[nH]cc1-c1nsc(Nc2ccccn2)n1` [Compound 1-5, 3-(3-Methyl-1H-pyrazol-4-yl)-N-(pyridin-2-yl)-1,2,4-thiadiazol-5-amine], the melting point is over 280 °C. In series [1], the EC50 was 1000 to 10000 nM. Taken in the same sequence, the figures for `c1ccc(Nc2nc(-c3cn[nH]c3)ns2)cc1` [Compound 1-6, N-Phenyl-3-(1H-pyrazol-4-yl)-1,2,4-thiadiazol-5-amine] were 192 °C and 1000 to 10000 nM. Taken in the same sequence, the figures for `Cc1n[nH]cc1-c1csc(Nc2ccccc2)n1` [Compound 1-7, 4-(3-Methyl-1H-pyrazol-4-yl)-N-phenylthiazol-2-amine] were 200 to 202 °C and 1000 to 10000 nM. `CCCc1n[nH]cc1-c1nsc(Nc2ccccc2)n1` [Compound 1-8, N-Phenyl-3-(3-propyl-1H-pyrazol-4-yl)-1,2,4-thiadiazol-5-amine]: the melting point is 170 to 172 °C. Moreover, the EC50 in series [1] was 1000 to 10000 nM.

As for `CCCc1n[nH]cc1-c1nsc(Nc2ccccn2)n1` [Compound 1-9, 3-(3-Propyl-1H-pyrazol-4-yl)-N-(pyridin-2-yl)-1,2,4-thiadiazol-5-amine], the melting point lay in the range of 248 to 250 °C. Also, in series [1], the EC50 was 1000 to 10000 nM. The corresponding values for `FC(F)(F)c1n[nH]cc1-c1nsc(Nc2ccccn2)n1` [Compound 1-10, N-(Pyridin-2-yl)-3-(3-(trifluoromethyl)-1H-pyrazol-4-yl)-1,2,4-thiadiazol-5-amine] are over 260 °C and 500 to 1000 nM. Molecule `Cc1n[nH]cc1-c1csc(Nc2ccccn2)n1` [Compound 1-11, 4-(3-Methyl-1H-pyrazol-4-yl)-N-(pyridin-2-yl)thiazol-2-amine] displayed a melting point of 255 to 257 °C. In series [1], the EC50 is under 500 nM.

`FC(F)(F)c1n[nH]cc1-c1csc(Nc2ccccn2)n1` [Compound 1-12, N-(Pyridin-2-yl)-4-(3-(trifluoromethyl)-1H-pyrazol-4-yl)thiazol-2-amine] came in with a melting point of 250 °C. In addition, the EC50 in series [1] lay within 500 to 1000 nM. Taken in the same sequence, the figures for `CC(C)c1n[nH]cc1-c1csc(Nc2ccccn2)n1` [Compound 1-13, 4-(3-Isopropyl-1H-pyrazol-4-yl)-N-(pyridin-2-yl)thiazol-2-amine] were 195 °C and 1000 to 10000 nM.

In turn, `Cc1sc(Nc2ccccn2)nc1-c1cn[nH]c1` [Compound 1-16, 5-Methyl-4-(1H-pyrazol-4-yl)-N-(pyridin-2-yl)thiazol-2-amine] registered a melting point of 291 to 294 °C. Besides, the concentration giving a half-maximal response (EC50) in series [1] is under 500 nM. Taken in the same sequence, the figures for `Cc1cccc(Nc2nc(-c3cn[nH]c3)c(C)s2)n1` [Compound 1-18, 5-Methyl-N-(6-methylpyridin-2-yl)-4-(1H-pyrazol-4-yl)thiazol-2-amine] were 306 °C and under 500 nM. The molecule `c1ccc(Nc2nc(-c3cn[nH]c3)cs2)nc1` [Compound 1-25, N-(4-(1H-pyrazol-4-yl)thiazol-2-yl)pyridin-2-amine] gave a melting point of 261 to 262 °C. The concentration giving a half-maximal response (EC50) in series [1] was under 500 nM. The corresponding values for `Cc1sc(Nc2ccccn2)nc1-c1cnn(C(N)=O)c1` [Compound 1-27, 4-(5-Methyl-2-(pyridin-2-ylamino)thiazol-4-yl)-1H-pyrazole-1-carboxamide] are 294 to 296 °C and under 500 nM. Taken in the same sequence, the figures for `Cc1sc(Nc2cccc(Cl)n2)nc1-c1cn[nH]c1` [Compound 1-31, N-(6-Chloropyridin-2-yl)-5-methyl-4-(1H-pyrazol-4-yl)thiazol-2-amine] were 290 °C (dec.) and under 500 nM.

Molecule `Clc1sc(Nc2ccccn2)nc1-c1cn[nH]c1` [Compound 1-32, 5-Chloro-4-(1H-pyrazol-4-yl)-N-(pyridin-2-yl)thiazol-2-amine] registered a melting point of 282 to 285 °C. Besides, the concentration for a half-maximal effect (EC50) in series [1] is under 500 nM. Take `Cc1sc(Nc2cccc(F)n2)nc1-c1cn[nH]c1` [Compound 1-33, N-(6-Fluoropyridin-2-yl)-5-methyl-4-(1H-pyrazol-4-yl)thiazol-2-amine]: the melting point is 290 °C (dec.). For the same molecule, the EC50 in series [1] is under 500 nM. Consider `Cc1n[nH]cc1-c1nsc(Nc2cccc(F)n2)n1` [Compound 1-43, N-(6-Fluoropyridin-2-yl)-3-(3-methyl-1H-pyrazol-4-yl)-1,2,4-thiadiazol-5-amine], for which the melting point is over 300 °C. In addition, the EC50 in series [1] is under 500 nM. The corresponding values for `Cc1sc(Nc2ncccc2F)nc1-c1cn[nH]c1` [Compound 1-46, N-(3-Fluoropyridin-2-yl)-5-methyl-4-(1H-pyrazol-4-yl)thiazol-2-amine] are 300 °C (dec.) and under 500 nM. As for `N#Cc1sc(Nc2ccccn2)nc1-c1cn[nH]c1` [Compound 1-47, 4-(1H-Pyrazol-4-yl)-2-(pyridin-2-ylamino)thiazol-5-carbonitrile], the melting point is 250 °C (dec.). In addition, the EC50 in series [1] is under 500 nM.

`Clc1cccc(Nc2nc(-c3cn[nH]c3)cs2)n1` [Compound 1-49, N-(6-Chloropyridin-2-yl)-4-(1H-pyrazol-4-yl)thiazol-2-amine]: the melting point was 295 °C (dec.). Moreover, in series [1], the EC50 was under 500 nM. `Fc1cccc(Nc2nc(-c3cn[nH]c3)cs2)n1` [Compound 1-51, N-(6-Fluoropyridin-2-yl)-4-(1H-pyrazol-4-yl)thiazol-2-amine] registered a melting point of 281 to 285 °C. Also, the 50% effective concentration (EC50) in series [1] is under 500 nM. The corresponding values for `Cc1cccc(Nc2nc(-c3cn[nH]c3)cs2)n1` [Compound 1-53, N-(6-Methylpyridin-2-yl)-4-(1H-pyrazol-4-yl)thiazol-2-amine] are 259 to 260 °C and under 500 nM. With `FC(F)(F)c1sc(Nc2ccccn2)nc1-c1cn[nH]c1` [Compound 1-54, 4-(1H-Pyrazol-4-yl)-N-(pyridin-2-yl)-5-(trifluoromethyl)thiazol-2-amine], the melting point is 250 °C (dec.). For the same molecule, the EC50 in series [1] was in the range of 500 to 1000 nM. Consider `Fc1sc(Nc2ccccn2)nc1-c1cn[nH]c1` [Compound 1-56, 5-Fluoro-4-(1H-pyrazol-4-yl)-N-(pyridin-2-yl)thiazol-2-amine], for which, in series [1], the EC50 is under 500 nM. For the molecule `c1ccc(Nc2nc(-c3c[nH]nc3C3CC3)cs2)nc1` [Compound 1-60, 4-(3-Cyclopropyl-1H-pyrazol-4-yl)-N-(pyridin-2-yl)thiazol-2-amine], the melting point was 211 to 213 °C. In series [1], the EC50 was under 500 nM. In turn, `CCc1n[nH]cc1-c1csc(Nc2ccccn2)n1` [Compound 1-61, 4-(3-Ethyl-1H-pyrazol-4-yl)-N-(pyridin-2-yl)thiazol-2-amine] showed a melting point of 196 to 198 °C. The EC50 in series [1] was under 500 nM.
